Measured values reported in patent publication US11458114B2, “Methods and compositions for enhancing synthesis secretion and transport of collagen to increase wound strength” (NORTH CELL PHARMACEUTICALS, INC., priority 2020, dated 2022).
Entries after “also recorded” stand apart in the source; their conditions may differ.

Assays:
[1] = tested on: tumors; assay: SRF given 1-2 hours prior to 3-bromopyruvate: tumor size; type: in vivo; settings: 3 bromopyruvate by itself
Experimental: To date most patients with cancer that are treated with radiation or cancer drugs show a partial reduction of tumor sizes, but in most cases the cancer remains and life expectances increases for a short period of time. This is the case for tumors. Five patients with various cancers were treated with 3-Bromopyruvate, an alkylating agent and a well-known inhibitor of energy metabolism. Results to date have been mixed. The problem with most cancer drugs is not only their toxicity to noncancerous tissue, but is their inability to completely eradicate the cancer. Cancer drugs cause hypoxia in normal noncancerous cells and they destroy tissue and their ability to heal. In mice studies conducted by others, they investigated the chemo preventive activity of 3-bromopyruvate. For the topical treatment the mice were treated with 10-30 mg/5 ml daily and treated for 8 weeks. […] 3-Bromopyruvate also dissociated hexokinase II from mitochondria, reduced hexokinase activity, and blocked energy metabolism in cancer cells, finally triggered cancer cell death and induced apoptosis through caspase-3, and PARP in human lung cancer cell line. The problem with 3-bromopyruvate was its toxicity to normal cells. The formula needed to protect noncancerous cells from 3-bromopyruvate and to enhance its effect on tumors, was the addition of SRF 1-2 hours prior to the administration of the 10 mg of 3-bromopyruvate. […]

[2] = tested on: HSV-1 or 2; assay: Viral plaques in virally infected cells, HSV; type: cell-based
Source text: Results: The primary end points were the levels of IL-8 and IL-1 after treatment with an immunostimulators, and SRF. […] IL-8 activates neutrophils to increase their numbers at the infected site. […] IL-1 increases inflammation and decreases healing times. […] The same experiment was done with virally infected cells and the SRF in combination with immunostimulators decreased viral plaque formed by HSV-1 or 2 by 70% and HPV-18 decreased by 82%. Viral plaques are a direct measure of viral numbers in infected cells.

[3] = tested on: virally infected cells; assay: Viral plaque formation in virally infected cells; type: cell-based
Source text: A commercial cold sore formula was purchased and the enumerated keto acids were placed into it to treat cold sores, both as a combination and singly as well. The commercial formulation by itself was utilized as a control. […] However, when SRF was placed in the cold sore formulation both with and without anti-oxidants and fatty acids, they heal the cold sore at a much faster rate 10-40% when tested on a cold sore sufferer The same experiment was done with virally infected cells and the combination of pyruvate and α-Ketoisovalerate with SRF decreased viral plaque formation by 50%. Viral plaques are a direct measure of viral numbers in infected cells. […] Other antivirals were evaluated with SRF to determine if the addition of SRF could reduce the skin irritation produced by Foscarnet sodium, Ribavirin, imiquimod, vidarabine, ganciclovir sodium, zidovudine, phenol, amantadine hydrochloride, and interferon. alpha.-n3. Even though some of these anti virals are not effective against a cold sore, they were evaluated on human cold sores to determine if SRF could reduce the irritation and enhance healing at the infection site. All formula with SRF healed cold sore two days faster than non-treatments and when this formula was combined with antiviral, like acyclovir or docosonal, the viral lesions healed 1.5 days faster than the commercial antiviral agent alone (Abreva or acyclovir). […]

[4] = tested on: wounds; assay: Various drugs administered on wounds with or without sodium pyruvate or SRF: erythema rating and days to total re-epithelization; settings: for Drugs in commercial formula with SRF erythema / Drugs in commercial formula with sodium pyruvate only erythema / Drugs in commercial formula erythema: Rating 1-10, 1 most erythema, 10 no erythema; for Drugs in commercial formula erythema / Drug in commercial formula Days to healing: drug alone; for Drug in commercial formula with SRF. Days to healing / Drug in commercial formula with sodium pyruvate only. Days to healing / Drug in commercial formula Days to healing: days to total re-epithelization
Experimental: (§1) All previous studies using pyruvate to treat wounds or be used as an antioxidant used only the sodium salt form of pyruvic acid. The drug products that were tested in previous studies used 1-3% sodium pyruvate and other sodium salts of alpha keto acids by weight 1-3% concentrations in the lotions and triple antibiotic formulations. […]

[5] = tested on: cultured human dermal fibroblasts; assay: Procollagen production in cultured human dermal fibroblasts (ELISA); type: cell-based
[6] = tested on: Doxorubicin treated wounded hairless rats; assay: Rat wound strength healing study, doxorubicin-impaired wounds; type: in vivo; settings: for Days to healing: Doxorubicin treated wounded hairless rats, topical, 2% pyruvate salts, 1% L proline, 1% L-citrulline; for Percentage of wound breaking strength, by day 21: compared to non-wounded normal skin (100%)
Experimental: Wound breaking strength is a measurement of wound strength after injury compared to normal noninjuried skin. Fourteen groups of five rats each were studied. The SRF was administered topically daily. All groups were wounded at postoperative day 0, at which time Doxo was given to all Groups. All wounds were harvested at POD 21, and the mean wound breaking strength (WBS) of each group was obtained using an Instron Tensiometer.

[7] = tested on: HPV 16 or 18; assay: Viral plaque reduction, patients with vaginal HPV treated with SRF cream containing imiquimod; settings: human, in vivo
Experimental: Percentage of Viral Plaque Reduction in Virally Infected Cells in Humans
A total of 15 patients with vaginal HPV 16 or 18 were treated with the SRF cream that also contained imiquimod. […] SRF reduces viral plaques in virally infected cells by 22-34%. Unexpectedly, the combination of SRF and Imiquimod produced the best results, by reducing the viral plaques over 92%, eliminating the virus from most of the infected cells. This tissue culture data along with data from humans, confirms that this combination worked.

[8] = tested on: laser wounds on the left arm; assay: Pigmentation study on laser wounds; type: in vivo; settings: range 1-10, 10 totally normal
Source text: Six laser wounds were made on the left arm. As an example, Mupirocin was placed on the first wound site, Mupirocin plus sodium pyruvate was placed on the second wound site and Mupirocin with SRF was placed on third wound site. The same process was repeated with another drug for sites 4-6. Every two days the bandages coated with the drugs were removed and replaced five times. Pigmentation measurements range from 1-10 with 10 being totally normal. The mupirocin drug formulas averaged a 4.9 for pigmentation. […]. The addition of the SRF averaged 7.45 a […] increase in pigmentation.

[9] = tested on: UVB-induced wrinkle formation; assay: Topical alpha-ketoglutarate on UVB-induced wrinkle formation; type: in vivo, human; settings: 1% topical, 6 weeks
[10] = tested on: cold sores; assay: Cold sore treatment, 15 subjects; settings: human, in vivo
[11] = tested on: wounded hairless Rats; assay: Nitric oxide production and days to healing in wounded hairless rats; type: in vivo, rat; settings: topical
[12] = tested on: skin laser wounds in patients; assay: Salts of pyruvate and SRF on skin laser wounds in patients: healing and irritation
Experimental: as §1

[13] = Amount of salts delivered in the pyruvate formulations compared to amounts in human blood; settings: amount delivered in the pyruvate formulation

O=C(O)C(=O)CBr [3-bromopyruvate]
reduction of tumor sizes [1]: 60%

Nc1nc2c(ncn2COCCO)c(=O)[nH]1 [Acyclovir]
decreased viral HSV plaques [2]: 60%
decrease of viral plaque formation [3]: 60%
Drugs in commercial formula with SRF erythema [4]: 7
Drugs in commercial formula with sodium pyruvate only erythema [4]: 5
Drugs in commercial formula erythema [4]: 4
Drug in commercial formula with SRF. Days to healing [4]: 10 days
Drug in commercial formula with sodium pyruvate only. Days to healing [4]: 13 days
Drug in commercial formula Days to healing [4]: 18 days

O=C(O)[C@@H]1CCCN1C(=O)OCc1ccccc1 [Cbz-Pro, N-benzyloxycarbonyl-L-proline]
procollagen synthesis by alpha-ketoglutarate ([5]; prolidase inhibitor added): inhibited procollagen synthesis

COc1cccc2c1C(=O)c1c(O)c3c(c(O)c1C2=O)C[C@@](O)(C(=O)CO)C[C@@H]3O[C@H]1C[C@H](N)[C@H](O)[C@H](C)O1 [Doxorubicin]
impaired normal wound strength by ([6]; Doxo 6 mg/kg i.v., POD 21): 40%

CC(C)Cn1cnc2c(N)nc3ccccc3c21 [Imiquimod]
reduction of viral plaques in virally infected cells [7]: 25-40%

C/C(=C\C(=O)OCCCCCCCCC(=O)O)C[C@@H]1OC[C@H](C[C@@H]2O[C@H]2[C@@H](C)[C@H](C)O)[C@@H](O)[C@H]1O [Mupirocin]
Drugs in commercial formula with SRF erythema [4]: 8
Drugs in commercial formula with sodium pyruvate only erythema [4]: 6
Drugs in commercial formula erythema [4]: 4
Drug in commercial formula with SRF. Days to healing [4]: 11 days
Drug in commercial formula with sodium pyruvate only. Days to healing [4]: 15 days
Drug in commercial formula Days to healing [4]: 20 days
Pigmentation measurement [8]: 4.9

O=C(O)CCC(=O)C(=O)O [alpha-ketoglutarate]
stimulated procollagen production ([5]; 10 microM, compared to vehicle (dH(2)O)-treated control cells): 25.6+/−4.6%
activities of prolidase ([5]; fibroblasts): increased
wrinkle formation [9]: decreased wrinkle formation

CCCCCCCCCCCCCCCCCCCCCCO [docosonal]
cold sore efficacy, lesion healing [10]: better efficacy with the addition of SRF

Oc1ccccc1 [phenol]
cold sore efficacy, lesion healing [10]: did not work very well

Calcium pyruvate
% of NO levels against normal nonwounded skin [11]: 22%
Days to healing [11]: 15 days
Days to healing [6]: 14 days
Percentage of wound breaking strength, by day 21 [6]: 42%

Magnesium pyruvate
% of NO levels against normal nonwounded skin [11]: 36%
Days to healing [11]: 13 days
Days to healing [6]: 14 days
Percentage of wound breaking strength, by day 21 [6]: 44%
wound healing results ([12]; human, in vivo): slight increases in healing; also recorded: did not produce increases in healing over the base

zinc pyruvate
wound healing results ([12]; same concentration of pyruvate for each salt, compared with sodium pyruvate formulations or base): slight increases in healing; also recorded: did not produce increases in healing over the base
irritation or toxicity ([12]; skin): irritating and possibly toxic
delivered salt relative to blood levels [13]: 840 × blood levels
